Experimental data taken from EPA's ToxValDB 9.5.
≈ marks a conversion by molar mass, not a printed value. Where “and” joins values, the source holds several entries; their conditions need not be identical. Equal values may be shown once.

Tests used:
[1] = tested on: Rattus norvegicus; details: for LC50 / LD50: acute
[2] = tested on: Rattus norvegicus; assay: LD40; higher = less toxic; details: acute; oral; gavage; Wistar
[3] = tested on: Cavia sp.; details: acute; inhalation; FTD Hartley
[4] = tested on: Mus musculus; details: for LC50 / LD50: acute; for LD50: injection
[5] = tested on: Monkey; details: subchronic; duration: 3 months; inhalation; Cynomolgus
[6] = tested on: Rattus norvegicus; details: chronic, duration: 2 years, oral, diet
[7] = tested on: Tytonidae; details: oral
[8] = tested on: Rattus norvegicus; details: repeat dose other; oral
[9] = tested on: Rattus norvegicus
[10] = tested on: Rattus norvegicus; remark: listed apart in the source
[11] = tested on: Monkey; details: subchronic; duration: 55 days; oral; diet; M; Squirrel Monkey; neurological
[12] = tested on: Mus musculus; assay: LC100; higher = less toxic; details: acute; inhalation
[13] = tested on: Rattus norvegicus; details: subchronic; duration: 90 days; oral; gavage; M/F; Sprague-Dawley; Whole Body Effects
[14] = tested on: Cavia porcellus; details: subchronic, inhalation, Guinea Pig
[15] = tested on: Oryctolagus sp.; details: subchronic; duration: 7 weeks; inhalation
[16] = tested on: Perdix perdix; details: oral
[17] = tested on: Canidae; details: chronic, duration: 1 years, oral, diet, Dog Other, Decreased weight gain in males and neurologic findings in both sexes
[18] = tested on: Oryctolagus sp.; details: reproduction developmental; duration: 22 days; oral; gavage; M/F; New Zealand; neurological
[19] = tested on: Sus scrofa; details: chronic; duration: 105 days; oral; diet; Not specified; Gastrointestinal system: Disturbance
[20] = tested on: Mus musculus; details: subchronic; duration: 13 weeks; inhalation; intermittent; Nasal mucosa: Inflammation
[21] = tested on: Homo sapiens; details: clinical; duration: 30 minutes; inhalation; M/F; respiratory
[22] = chronic, duration: 2 years, oral, diet, M/F, liver lesions
[23] = subchronic, oral, M/F, reduced body weight
[24] = subchronic, duration: 35 days, inhalation, ICR
[25] = subchronic, duration: 90 days, oral, gavage, Albino- not specified
[26] = chronic, duration: 2 years, oral, diet, F, increased incidence of marked progressive glomerulonephrosis and blood vessel aneurysms in males + Reduced body weight gain in males and …
[27] = subchronic, inhalation, M, nasal lesions of the olfactory mucosa

CC(C)(C)C(=O)CCc1ccc(Cl)cc1 [1-(4-Chlorophenyl)-4,4-dimethyl-pentan-3-one]
LC50 ([1]; Inhalation, Wistar): > 2940 mg/m3
LD50 ([1]; dermal, occlusive, Wistar): > 5000 mg/kg
LD50 ([1]; oral, gavage, Wistar): 4750 mg/kg and > 5000 mg/kg and 4820 mg/kg
LD40 [2]: 3140 mg/kg

[C-]#[O+] [Carbon monoxide]
LC50 [3]: 2070 mg/m3 and ≥ 1830 mg/m3 and ≤ 2240 mg/m3
LC50 ([4]; inhalation, NIH/Nmri Swiss albino): 2070 mg/m3 and ≥ 1830 mg/m3 and ≤ 2240 mg/m3
LOAEL ([4]; reproduction developmental, duration: 7 days, inhalation, CD1, generation: F1): 143 mg/m3
LOAEL [5]: 115 mg/m3

ClC1=C(Cl)[C@]2(Cl)[C@@H]3[C@@H]4C[C@@H]([C@H]5O[C@@H]45)[C@@H]3[C@@]1(Cl)C2(Cl)Cl [Dieldrin]
NOAEL ([6]; Liver: Lesions): 0.005 mg/kg-day
NOAEL [7]: 0.077 mg/kg-day
LOAEL [8]: 0.2 mg/kg-day
NOAEL [8]: 0.02 mg/kg-day
LOAEL [9, 22]: 0.05 mg/kg-day
NOAEL [9, 22]: 0.005 mg/kg-day
NOAEL ([10]; chronic, duration: 2 years, oral, diet, M/F, Carworth Farms E, hepatic): 0.005 mg/kg-day
NOAEL [11]: 0.01 mg/kg-day

CCOCC [Diethyl ether]
LC100 [12]: 128 mg/L
NOAEL [13]: 500 mg/kg-day
LOAEL [9, 23]: 2000 mg/kg-day
NOAEL [9, 23]: 500 mg/kg-day
LC50 ([4]; inhalation): 130 µg/mL (≈ 1750 µM)
LC50 ([4]; inhalation, C3H/HeCr): 98200 mg/m3 and 94900 mg/m3
LC50 ([4]; inhalation, C57BL/6): 199000 mg/m3 and 182000 mg/m3
LD50 ([4]; Intraperitoneal): 2420 mg/kg
LD50 ([4]; intravenous): 996 mg/kg
LOAEL [4, 24]: 30 mg/L
NOAEL [4, 24]: 3 mg/L
NOAEL ([14]; duration: 7 weeks): 6.2 mg/L
LOAEL ([14]; duration: 35 days): 30 mg/L
NOAEL ([14]; duration: 35 days): 3 mg/L
LC50 ([1]; oral, Sprague-Dawley): 1710 mg/kg
NOAEL ([1]; subchronic, duration: 7 weeks, inhalation, Wistar): 6.2 mg/L
NOAEL ([1]; subchronic, duration: 35 days, inhalation, Sprague-Dawley): 30 mg/L
LOAEL [1, 25]: 2000 mg/kg-day
NOAEL [1, 25]: 500 mg/kg-day
NOAEL [15]: 6.2 mg/L

O=S1OCC2C(CO1)C1(Cl)C(Cl)=C(Cl)C2(Cl)C1(Cl)Cl (stereo not drawn) [Endosulfan]
NOAEL ([6]; Blood vessel: Aneurysms + Kidney: Glomerulonephrosis + Whole body: Decreased weight gain): 1.17 mg/kg-day
NOAEL [16]: 10 mg/kg-day
NOAEL [8]: 0.15 mg/kg-day
LOAEL [9, 26]: 3.8 mg/kg-day
NOAEL [9, 26]: 0.7 mg/kg-day
LOAEL ([9]; chronic, duration: 2 years, oral, diet, M, increased incidence of marked progressive glomerulonephrosis and blood vessel aneurysms in males + Reduced body weight gain in males and …): 2.9 mg/kg-day
NOAEL ([9]; chronic, duration: 2 years, oral, diet, M, reduced body weight gain (males) and females increased incidence of marked progressive glomerulonephrosis and blood vessel aneurysms (males)): 0.6 mg/kg-day
LOAEL ([17]; F): 1.9 mg/kg-day
NOAEL ([17]; F): 0.57 mg/kg-day
LOAEL ([17]; M): 2.1 mg/kg-day
NOAEL ([10]; chronic, duration: 22 weeks, oral, diet, M, Wistar, immunological): 0.45 mg/kg-day
NOAEL [18]: 0.7 mg/kg-day

S [Hydrogen sulfide]
NOAEL [19]: 3.1 mg/kg-day
NOAEL [20]: 42 mg/m3
LOAEL [9, 27]: 41.7 mg/m3
NOAEL [9, 27]: 13.9 mg/m3
LC50 ([1]; inhalation, Sprague-Dawley): 619 mg/m3 and ≥ 580 mg/m3 and ≤ 659 mg/m3
NOAEL ([1]; reproduction developmental, duration: 18 days, inhalation, F, Sprague-Dawley): 112 mg/m3
NOAEL ([1]; reproduction developmental, inhalation, Sprague-Dawley, generation: F0): 112 mg/m3
NOAEL ([1]; reproduction developmental, inhalation, Sprague-Dawley, generation: F1): 112 mg/m3
LOAEL [21]: 2.79 mg/m3
NOAEL ([10]; subchronic, duration: 10 weeks, inhalation, M, Sprague-Dawley, respiratory): 13.9 mg/m3
